Measured values published in patent US9776962B2, “Aromatic compounds with GPR40 agonistic activity” (TAKEDA PHARMACEUTICAL COMPANY LIMITED, priority 2013, dated 2017).

molecular target: T1, human GPR40 (Homo sapiens, UniProt O14842); experiment: Evaluation of human GPR40 agonist activity with increase in intracellular Ca2+ concentration as an index (FLIPR); type: cell-based; conditions: test compound 1 μM; CHO(dhfr−) cells stably expressing human GPR40; 100% = 10 μM compound of Example 153, 0% = DMSO
T1 construct: expressed in transfected cells
T1 sequence (O14842 whole entry): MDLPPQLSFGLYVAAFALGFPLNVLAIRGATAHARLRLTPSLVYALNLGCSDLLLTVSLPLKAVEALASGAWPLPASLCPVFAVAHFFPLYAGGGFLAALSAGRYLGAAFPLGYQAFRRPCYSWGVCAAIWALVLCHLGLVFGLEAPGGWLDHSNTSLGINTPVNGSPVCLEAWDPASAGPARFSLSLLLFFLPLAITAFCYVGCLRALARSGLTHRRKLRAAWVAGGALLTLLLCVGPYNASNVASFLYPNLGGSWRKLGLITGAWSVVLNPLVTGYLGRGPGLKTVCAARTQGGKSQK
Method: Plasmid hGPR40/pAKKO-1.11H for mammalian cells expression, wherein cDNA fragment (SEQ ID NO: 1) encoding the full-length human GPR40 was incorporated into an expression vector pAKKO-1.11H (Biochimica et Biophysica Acta vol. 1219 pp. 251-259 (1994)), was transfected into CHO-dhfr(−) cells (ATCC, CRL-9096) by using Lipofectamine 2000 (Invitrogen:11668-019). After transfection, the limiting dilution-culture method was performed to select clone in selection medium (nucleic acid-free α-MEM (Invitrogen:12561-056)) containing 10% dialyzed bovine serum (Invitrogen:26400-044)). The expression level of human GPR40 mRNA was confirmed by TaqMan PCR (Life Technologies), and the intracellular calcium mobilization activity of GPR40 ligand (γ-linolenic acid) was confirmed by FLIPR (Molecular Devices), and a clone of human GPR40 expressing CHO cells was selected.
Evaluation of Human GPR40 Agonist Activity with Increase in Intracellular Ca^2+ Concentration as an Index
CHO(dhfr−) cells that stably expressed human GPR40 were suspended in MEMα (Nikken Bio Medical Laboratory) containing 10% dialyzed bovine serum (JR Scientific), 10 mM HEPES (Life Technologies), 100 U/mL penicillin, 100 μg/mL streptomycin (Life Technologies), and plated on a 384 well black/clear cell culture plate at 10,000 cells/well. After culture overnight in a CO2 incubator at 37° C., the culture supernatant was removed, and loading buffer [Ca^2+ probe attached to Calcium Kit II-iCellux (DOJINDO) was dissolved in assay buffer (20 mM HEPES, 0.1% fatty acid-free BSA (Sigma-Aldrich), 2.5 mM probenecid (DOJINDO)-containing HESS (Life Technologies))] was added at 30 μL/well. After leaving for 1 hr at room temperature under light shielding, assay buffer containing the test compound at a final concentration of 1 μM was added at 10 μL/well in FLIPR Tetra (Molecular Devices), and the fluorescence amount was successively measured. Human GPR40 agonist activity calculated using an increase in the intracellular Ca^2+ concentration as an index, wherein the activity of 10 μM of the compound of Example 153 was 100%, and the activity when DMSO was added instead of the test compound was 0%.

Row | Structure (SMILES) | activation at 1 µM
1 | COc1ccc(C(=O)N(CC(C)(C)OC(C)C)c2ccccn2)c(N2CCC(COc3cc(C(CC(=O)O)C4CC4)ccn3)CC2)c1 (stereo not shown) [Example 160, 3-cyclopropyl-3-(2-((1-(2-((2-isopropoxy-2-methylpropyl)(pyridin-2-yl)carbamoyl)-5-methoxyphenyl)piperidin-4-yl)methoxy)pyridin-4-yl)propanoic acid] | 97%
2 | Cc1cccc(N(CC(C)(C)C)C(=O)c2c(F)cc(Cl)cc2N2CCC(COc3cc(C(CC(=O)O)C4CC4)ccn3)CC2)n1 (stereo not shown) [Example 265, 3-(2-((1-(5-chloro-2-((2,2-dimethylpropyl)(6-methylpyridin-2-yl)carbamoyl)-3-fluorophenyl)piperidin-4-yl)methoxy)pyridin-4-yl)-3-cyclopropylpropanoic acid] | 85%
3 | COc1ccc(C(=O)N(CC(C)C)c2ccnc(OC)c2)c(N2CCC(COc3cc(C(CC(=O)O)C4CC4)ccn3)CC2)c1 (stereo not shown) [Example 127, 3-cyclopropyl-3-(2-((1-(5-methoxy-2-((2-methoxypyridin-4-yl)(2-methylpropyl)carbamoyl)phenyl)piperidin-4-yl)methoxy)pyridin-4-yl)propanoic acid] | 94%
4 | COc1ccc(C(=O)N(CC(C)(C)C)c2cccc(C)n2)c(N2CCC(COc3cc(C(CC(=O)O)C4CC4)ccn3)CC2)c1F (stereo not shown) [Example 252, 3-cyclopropyl-3-(2-((1-(6-((2,2-dimethylpropyl)(6-methylpyridin-2-yl)carbamoyl)-2-fluoro-3-methoxyphenyl)piperidin-4-yl)methoxy)pyridin-4-yl)propanoic acid] | 87%
5 | COc1ccc(C(=O)N(CC(C)C)c2cccc(C)n2)c(N2CCC(COc3cc(C(CC(=O)O)C4CC4)ccn3)CC2)c1 (stereo not shown) [Example 122, 3-cyclopropyl-3-(2-((1-(5-methoxy-2-((2-methylpropyl)(6-methylpyridin-2-yl)carbamoyl)phenyl)piperidin-4-yl)methoxy)pyridin-4-yl)propanoic acid] | 101%
6 | COc1ccc(C(=O)N(Cc2ccccn2)CC(C)(C)C)c(N2CCC(COc3cc(C(CC(=O)O)C4CC4)ccn3)CC2)c1 (stereo not shown) [Example 181, 3-cyclopropyl-3-(2-((1-(2-((2,2-dimethylpropyl)(pyridin-2-ylmethyl)carbamoyl)-5-methoxyphenyl)piperidin-4-yl)methoxy)pyridin-4-yl)propanoic acid] | 91%
7 | COc1ccc(C(=O)N(CC(F)(F)F)c2cccc(C)n2)c(N2CCC(COc3cc(C(CC(=O)O)C4CC4)ccn3)CC2)c1 (stereo not shown) [Example 143, 3-cyclopropyl-3-(2-((1-(5-methoxy-2-((6-methylpyridin-2-yl)(2,2,2-trifluoroethyl)carbamoyl)phenyl)piperidin-4-yl)methoxy)pyridin-4-yl)propanoic acid] | 102%
8 | COc1cc(N2CCC(COc3cc(C(CC(=O)O)C4CC4)ccn3)CC2)c(C(=O)N(CC(C)(C)C)c2cc(C)nc(C)n2)cn1 (stereo not shown) [Example 286, 3-cyclopropyl-3-(2-((1-(5-((2,2-dimethylpropyl) (2,6-dimethylpyrimidin-4-yl)carbamoyl)-2-methoxypyridin-4-yl)piperidin-4-yl)methoxy)pyridin-4-yl)propanoic acid] | 107%
9 | CCc1ccc(C(=O)N(CC(C)(C)C)c2ccccn2)c(N2CCC(COc3cccc(C(CC(=O)O)C4CC4)c3)CC2)c1 (stereo not shown) [Example 56, 3-cyclopropyl-3-(3-((1-(2-((2,2-dimethylpropyl)(pyridin-2-yl)carbamoyl)-5-ethylphenyl)piperidin-4-yl)methoxy)phenyl)propanoic acid] | 83%
10 | COc1ccc(C(=O)N(CC(F)(F)F)c2cc(C)nc(C)n2)c(N2CCC(COc3cc(C(CC(=O)O)C4CC4)ccn3)CC2)c1 (stereo not shown) [Example 238, 3-cyclopropyl-3-(2-((1-(2-((2,6-dimethylpyrimidin-4-yl) (2,2,2-trifluoroethyl)-carbamoyl)-5-methoxyphenyl)piperidin-4-yl)methoxy)pyridin-4-yl)propanoic acid] | 101%
11 | COc1ccc(C(=O)N(CC(F)(F)C(F)(F)F)c2nccc(C)n2)c(N2CCC(COc3cc(C(CC(=O)O)C4CC4)ccn3)CC2)c1 (stereo not shown) [Example 171, 3-cyclopropyl-3-(2-((1-(5-methoxy-2-((4-methylpyrimidin-2-yl)(2,2,3,3,3-pentafluoropropyl)carbamoyl)phenyl)piperidin-4-yl)methoxy)pyridin-4-yl)propanoic acid] | 106%
12 | CCc1ccc(C(=O)N(CC(C)(C)C)c2cccc(C)n2)c(N2CCC(COc3cccc(C(CC(=O)O)C4CC4)c3)CC2)c1 (stereo not shown) [Example 55, 3-cyclopropyl-3-(3-((1-(2-((2,2-dimethylpropyl)(6-methylpyridin-2-yl)carbamoyl)-5-ethylphenyl)piperidin-4-yl)methoxy)phenyl)propanoic acid] | 84%
13 | COc1ccc(C(=O)N(CC(C)(C)C)c2ccccn2)c(N2CCC(COc3cc(C(CC(=O)O)C4CC4)ccn3)CC2)c1 (stereo not shown) [Example 111, 3-cyclopropyl-3-(2-((1-(2-((2,2-dimethylpropyl)(pyridin-2-yl)carbamoyl)-5-methoxyphenyl)piperidin-4-yl)methoxy)pyridin-4-yl)propanoic acid] | 100%
14 | CCc1ccc(C(=O)N(CC(C)(C)C)c2cccc(C)n2)c(N2CCC(COc3cc(C(CC(=O)O)C4CC4)ccn3)CC2)c1 (stereo not shown) [Example 109, 3-cyclopropyl-3-(2-((1-(2-((2,2-dimethylpropyl)(6-methylpyridin-2-yl)carbamoyl)-5-ethylphenyl)piperidin-4-yl)methoxy)pyridin-4-yl)propanoic acid] | 90%
15 | COc1ccc(C(=O)Nc2ccccn2)c(N2CCC(COc3cc(C(CC(=O)O)C4CC4)ccn3)CC2)c1 (stereo not shown) [Example 242, 3-cyclopropyl-3-(2-((1-(5-methoxy-2-(pyridin-2-ylcarbamoyl)phenyl)piperidin-4-yl)methoxy)pyridin-4-yl)propanoic acid] | 93%
16 | COc1ccc(C(=O)N(CC(C)C)c2cccc(C#N)c2)c(N2CCC(COc3cc(C(CC(=O)O)C4CC4)ccn3)CC2)c1 (stereo not shown) [Example 132, 3-(2-((1-(2-((3-cyanophenyl)(2-methylpropyl)carbamoyl)-5-methoxyphenyl)piperidin-4-yl)methoxy)pyridin-4-yl)-3-cyclopropylpropanoic acid] | 99%
17 | COc1ccc(C(=O)N2CCOc3ccccc32)c(N2CCC(COc3cc(C(CC(=O)O)C4CC4)ccn3)CC2)c1 (stereo not shown) [Example 199, 3-cyclopropyl-3-(2-((1-(2-(2,3-dihydro-4H-1,4-benzoxazin-4-ylcarbonyl)-5-methoxyphenyl)piperidin-4-yl)methoxy)pyridin-4-yl)propanoic acid] | 93%
18 | COc1ccc(C(=O)N(CC(C)(C)C)c2cccc(C)n2)c(N2CCC(COc3cc(C(CC(=O)O)C4CC4)c(F)cn3)CC2)c1 (stereo not shown) [Example 274, 3-cyclopropyl-3-(2-((1-(2-((2,2-dimethylpropyl)-(6-methylpyridin-2-yl)carbamoyl)-5-methoxyphenyl)piperidin-4-yl)methoxy)-5-fluoropyridin-4-yl)propanoic acid] | 104%
19 | COc1ccc(C(=O)N(CC(F)(F)C(F)F)c2ccccn2)c(N2CCC(COc3cc(C(CC(=O)O)C4CC4)ccn3)CC2)c1 (stereo not shown) [Example 138, 3-cyclopropyl-3-(2-((1-(5-methoxy-2-(pyridin-2-yl(2,2,3,3-tetrafluoropropyl)carbamoyl)phenyl)piperidin-4-yl)methoxy)pyridin-4-yl)propanoic acid] | 102%
